{
  "source": "patent US9802880B2",
  "about": "“Cannabigerol derivatives” (VIVACELL BIOTECHNOLOGY ESPAÑA S.L., priority 2014, dated 2017)",
  "key": {"N2a cells": {"test_system": "N2a cells", "assay": "Cytotoxicity, MTT assay, N2a cells", "type": "cell-based", "details": "24 h, FIG. 3A", "description": "(§1) The cell lines N2a (A), HT22 (B) and MO3.13 (C) cells were incubated for 24 h with the indicated doses of CBG-Q (Compound I) versus compounds II to XII, and cell viability was quantified by MTT assay. […] Control was set as 100% and data were referred to that value.\n(§2) Electrophilic quinones induce cytotoxicity and activate the Nrf2 pathway, a cellular sensor of reactive oxygen species generation. In FIG. 3 it is analyzed the induced cell death in three different types of cells (N2a, HT22 and MO3.13) by compounds CBG-Q (compound I) and compounds (II) to (XII).\n(§3) N2A, HT22 and MO3.13 cell viability was determined by the MTT assay. Briefly, cells were seeded at a density of 10^4 cells/well in 96-well plates, 200 μl cell suspension per well, and cultured for 24 hours. Cells were then incubated with several concentrations of the compounds for 24 hours. […] Finally the absorbance was measured at 550 nm using a TriStar LB 941 (Berthold Technologies, GmbH & Co. KG). […] The cell lines N2a (FIG. 3A), HT22 (FIG. 3B) and MO3.13 (FIG. 3C) cells were incubated for 24 h with the indicated doses of compounds CBG-Q (compound I) and compounds (II) to (XII), and cell viability was quantified by MTT assay. Results are shown as mean±S.D. from at least three independent experiments, and expressed as percentage of cell viability against the control sample (−). […]"}, "HT22 cells": {"test_system": "HT22 cells", "assay": "Cytotoxicity, MTT assay, HT22 cells", "type": "cell-based", "details": "24 h, FIG. 3B", "description": "as §1, §2, §3"}, "MO3.13 cells": {"test_system": "MO3.13 cells", "assay": "Cytotoxicity, MTT assay, MO3.13 cells", "type": "cell-based", "details": "24 h, FIG. 3C", "description": "as §1, §2, §3"}, "Nrf2": {"test_system": "Nrf2", "assay": "Nrf2 transcriptional assay in HaCaT-ARE-Luc cells", "type": "cell-based", "details": "6 h, FIG. 4", "description": "HaCaT-ARE-Luc cells were incubated for 6 h with compounds CBG-Q compound I) and with compounds I to VI (A) or with compounds VII to XII (B) at the indicated concentrations, and protein lysates were prepared and analysed for luciferase activity. The pro-oxidant tert-Butylhydroquinone (tBHQ) at 20 μM, a compound that induces cellular oxidative stress, was used as positive control. […] The results ratify that the reactive electrophilic activity associated to CBG-Q (compound I) is missing in all the compounds (derivatives in position 2) described in the present invention.\nTo study the activity of the compounds on the Nrf2 pathway we generated the HaCaT-ARE-Luc cell line. Nqo1 ARE-Luc reporter plasmid and pPGK-Puro plasmid were co-transfected into HaCat cells using Lipofectamine© 2000 transfection reagent (Life Technologies, Carlsbad, Ca, USA). Stable transformants were selected and maintained in RPMI 1640 containing 10% FBS, 1% penicillin-streptomycin and […] puromycin. HaCaT-ARE-Luc cells were incubated for 6 h with CBG-Q (compound I) and with compounds (II)-(VI) (A) or with compounds (VII)-(XII) (B) at the indicated concentrations, and protein lysates were prepared and analysed for luciferase activity as described in example 1. The prooxidant tert-Butylhydroquinone (tBHQ) at 20 μM was used as positive control. […]"}, "3NP-lesioned mice": {"test_system": "3NP-lesioned mice", "assay": "Huntington's disease 3NP model, behavioral score", "type": "in vivo, C57BL/6 mice", "details": "10 mg/kg i.p., four injections, FIG. 9", "description": "Mice were subjected to behavioral tests for determining their neurological status after the treatment with compounds I (10 mg/kg) (A), III (10 mg/kg) (B) and XII (10 mg/kg) (C). Hind limb clasping, Locomotor activity, Hind limb dystonia and Truncal Dystonia were rated from 0 to 2 based on severity: a score of 0 typically indicates normal function and 2 seriously affected. Values are expressed as means±SEM for 8 animals per group.\nLesions of the striatum were induced with 3-NP in adult (16 week old; 30 g) male C57BL/6 mice (Harlan Ibérica, Barcelona, Spain). To this end, mice were subjected to seven intraperitoneal (i.p.) injections of 3NP (one injection each 12 hours) at a dose of 50 mg/kg (prepared in phosphate-buffered saline) for 3 days. These animals and their respective non-lesioned controls were used for pharmacological studies with compounds CBG-Q (compound I) and with compounds III and XII (FIG. 9). At least 6-8 animals were used per experimental group. Treatments consisted of four i.p. injections of the compounds at the indicated doses (one injection each 24 hours), or vehicle (DMSO 0.2%, BSA 5% in PBS) 30 min before the injections of 3NP. All animals were euthanized 12 hours after the last 3NP injection. Once euthanized, animals were dissected and their brains were rapidly removed. The right hemisphere was used to dissect the striatum, which was quickly frozen in RNAlater (Sigma-Aldrich, Germany) to analyzed inflammatory markers were by Real Time PCR. The left hemisphere was fixed in fresh 4% paraformaldehyde (in 0.1M phosphate buffered-saline) for 48 hours at 4° C. and embedded in paraffin wax for histological analysis. Mice were subjected to behavioral tests for determining their neurological status. We evaluated the general locomotor activity, the hindlimb clasping and dystonia, and the truncal dystonia. All behavioral tests were conducted prior to drug injections to avoid acute effects of the compounds under investigation."}},
  "data": [
    {"smiles": "CCCCCC1=CC(=O)C(C/C=C(\\C)CCC=C(C)C)=C(O)C1=O", "note": "[CBG-Q, Cannabigerol hydroxy quinone]", "values": [
      {"measurement": "cytotoxic activity (cell viability, MTT)", "setting": "N2a cells", "result": "cytotoxic activity"},
      {"measurement": "cytotoxic activity (cell viability, MTT)", "setting": "HT22 cells", "result": "cytotoxic activity"},
      {"measurement": "cytotoxic activity (cell viability, MTT)", "setting": "MO3.13 cells", "result": "cytotoxic activity"},
      {"measurement": "Nrf2 activation (ARE-luciferase activity; reactive electrophilic activity)", "setting": "Nrf2", "result": "induces activation"},
      {"measurement": "clinical symptoms induced by 3-NP intoxication (hind limb clasping, locomotor activity, hind limb dystonia, truncal dystonia)", "setting": "3NP-lesioned mice", "result": "unable to prevent the clinical symptoms"}
    ]}
  ]
}
